Measurements from patent EP1137645B1, “ALPHA-METHYLBENZYL-CONTAINING THIOUREA INHIBITORS OF HERPES VIRUSES CONTAINING A […] GROUP” (Wyeth, priority 1998, dated 2000).
In brackets after ≈: the same amount, converted by molar mass. Where two headings read alike, the source gives them in different places.

Experiments:
[1] = system: HCMV recombinant mutant virus whose genome contains the prokaryotic beta-glucuronidase gene; test: microbe, parasite or virus in culture; type: cell-based, human cytomegalovirus; conditions: Human betaherpesvirus 5, Fibroblast
Procedure, shortened: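 Antiviral IC50 estimated from reduced reporter activity across compound amounts: lysates prepared 96 h after infection were tested with p-nitrophenyl- or methylumbelliferyl-glucuronide. Cells were human foreskin fibroblasts, infected alongside inhibitor with HCMV (e.g. RV145) expressing viral promoter-driven beta-glucuronidase.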

HSV- I = test: HSV antiviral (ELISA) assay; type: cell-based; conditions: read-out: IC50 (ug/ml) HSV
Procedure, shortened: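 IC50 from fluorescence versus untreated control in a cell ELISA: anti-glycoprotein D antibody, β-galactosidase-conjugated secondary, 4-methyl umbelliferone read at 365/450 nm. Vero cells (2% FBS DMEM) received compound 30 min pre-infection with HSV-1 at MOI 0.006, fixed ~24 h post-infection.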

VZV strain Ellen = test: VZV antiviral (ELISA) assay; type: cell-based
Procedure, shortened: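 HFF cells infected with VZV Ellen at multiplicity below 0.1 overnight, then mixed infected/uninfected cells seeded with compound in DMEM/2% FBS and incubated three days at 37°C, 5% CO2.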

[2] = Human alphaherpesvirus 3, VZV strain Ellen, HFF cells, ELISA, read-out: IC50 (ug/ml) VZV
[3] = read-out: IC50 ug/ml HCMV, HCMV, human foreskin fibroblasts
[4] = Human alphaherpesvirus 3, HFF, read-out: IC50 (ug/ml) VZV, VZV strain Ellen, HFF cells, ELISA

## CC(NC(=S)Nc1ccc(NC(=O)c2ccccc2F)cc1)c1ccc(F)cc1 (stereo not drawn) [Example 591, 2-Fluoro-N-(4-{3-[1-(4-fluoro-phenyl)-ethyl]-thioureido}-phenyl)-benzamide]
[1]; read-out: IC50 ug/ml HCMV
  IC50: 7 µg/mL (≈ 17 µM)
HSV- I; HSV- I, Vero cells, ELISA
  IC50: > 10 µg/mL
VZV strain Ellen; [2]
  IC50: 1.5 µg/mL (≈ 3.65 µM)

## CC(C)CN(C)c1cc(NC(=S)Nc2ccc(NC(=O)c3ccccc3F)cc2)cc(C(F)(F)F)c1 [Example 596, 2-Fluoro-N-(4-{3-[3-(isobutyl-methyl-amino)-5-trifluoromethyl-phenyl]-thioureido}-phenyl)-benzamide]
[1]; [3]
  IC50: 2 µg/mL (≈ 3.86 µM)
HSV- I; Vero
  IC50: > 10 µg/mL
VZV strain Ellen; [4]
  IC50: > 10 µg/mL

## CCCCN(C)c1cc(NC(=S)Nc2ccc(NC(=O)c3ccccc3F)cc2)cc(C(F)(F)F)c1 [Example 598, N-(4-{3-[3-(Butyl-methyl-amino)-5-trifluoromethyl-phenyl]-thioureido}-phenyl)-2-fluoro-benzamide]
[1]; [3]
  IC50: > 10 µg/mL
HSV- I; Vero
  IC50: > 10 µg/mL
VZV strain Ellen; [4]
  IC50: > 10 µg/mL

## O=C(Nc1ccc(NC(=S)NCCCc2ccccc2)cc1)c1ccccc1F [Example 628, 2-Fluoro-N-{4-[3-(3-phenyl-propyl)-thioureido]-phenyl}-benzamide]
[1]; [3]
  IC50: > 10 µg/mL
HSV- I; Vero
  IC50: > 10 µg/mL
VZV strain Ellen; [4]
  IC50: 10 µg/mL (≈ 24.5 µM)

## CN(C)c1cc(CNC(=S)Nc2ccc(NC(=O)c3ccccc3F)cc2)cc(C(F)(F)F)c1 [Example 636, N-{4-[3-(3-Dimethylamino-5-trifluoromethyl-benzyl)-thioureido]-phenyl}-2-fluoro-benzamide]
[1]; [3]
  IC50: > 10 µg/mL
HSV- I; Vero
  IC50: > 10 µg/mL
VZV strain Ellen; [4]
  IC50: 5 µg/mL (≈ 10.2 µM)

## COc1cccc(C(=O)Nc2ccc(NC(=S)NC(C)c3ccc(F)cc3)cc2)c1 (stereo not drawn) [Example 753, N-(4-{3-[1-(4-Fluoro-phenyl)-ethyl]-thioureido}-phenyl)-3-methoxybenzamide]
[1]; [3]
  IC50: > 0.5 µg/mL
HSV- I; Vero
  IC50: > 10 µg/mL
VZV strain Ellen; [4]
  IC50: > 7.5 µg/mL

## COc1ccc(C(=O)Nc2ccc(NC(=S)NC(C)c3ccc(F)cc3)cc2)cc1 (stereo not drawn) [Example 754, N-(4-{3-[1-(4-Fluoro-phenyl)-ethyl]-thioureido}-phenyl)-4-methoxy-benzamide]
[1]; [3]
  IC50: > 10 µg/mL
HSV- I; Vero
  IC50: > 10 µg/mL
VZV strain Ellen; [4]
  IC50: 0.2 µg/mL (≈ 0.472 µM)

## CC(NC(=S)Nc1ccc(NC(=O)c2ccccc2Cl)cc1)c1ccc(F)cc1 (stereo not drawn) [Example 755, 2-Chloro-N-(4-{3-[1-(4-fluoro-phenyl)-ethyl]-thioureido}-phenyl)-benzamide]
[1]; [3]
  IC50: > 10 µg/mL
HSV- I; Vero
  IC50: > 10 µg/mL
VZV strain Ellen; [4]
  IC50: 7 µg/mL (≈ 16.4 µM)

## CC(NC(=S)Nc1ccc(NC(=O)c2ccc(Cl)cc2)cc1)c1ccc(F)cc1 (stereo not drawn) [Example 756, 4-Chloro-N-(4-{3-[1-(4-fluoro-phenyl)-ethyl]-thioureido}-phenyl)-benzamide]
[1]; [3]
  IC50: > 10 µg/mL
HSV- I; Vero
  IC50: > 10 µg/mL
VZV strain Ellen; [4]
  IC50: 0.3 µg/mL (≈ 0.701 µM)

## CC(=O)Oc1ccc(C(=O)Nc2ccc(NC(=S)NC(C)c3ccc(F)cc3)cc2)cc1 (stereo not drawn) [Example 757, Acetic acid 4-(4-{3-[1-(4-fluoro-phenyl)-ethyl]-thioureido}-phenylcarbamoyl)-phenyl ester]
[1]; [3]
  IC50: > 10 µg/mL
HSV- I; Vero
  IC50: > 10 µg/mL
VZV strain Ellen; [4]
  IC50: 1.5 µg/mL (≈ 3.32 µM)

## CC(NC(=S)Nc1ccc(NC(=O)c2ccccc2)cc1)c1ccc(F)cc1 (stereo not drawn) [Example 758, N-(4-{3-[1-(4-Fluoro-phenyl)-ethyl]-thioureido}-phenyl)-benzamide]
[1]; read-out: IC50 ug/ml HCMV
  IC50: > 10 µg/mL
HSV- I; HSV- I, Vero cells, ELISA
  IC50: > 10 µg/mL
VZV strain Ellen; [2]
  IC50: > 10 µg/mL

## CC(NC(=S)Nc1ccc(NC(=O)c2ccc(O)cc2)cc1)c1ccc(F)cc1 (stereo not drawn) [Example 760, N-(4-{3-[1-(4-Fluoro-phenyl)-ethyl]-thioureido}-phenyl)-4-hydroxy-benzamide]
[1]; read-out: IC50 ug/ml HCMV
  IC50: > 10 µg/mL
HSV- I; HSV- I, Vero cells, ELISA
  IC50: > 10 µg/mL
VZV strain Ellen; [2]
  IC50: > 10 µg/mL

## CC(NC(=S)Nc1ccc(NC(=O)c2cccc(Cl)c2)cc1)c1ccc(F)cc1 (stereo not drawn) [Example 761, 3-Chloro-N-(4-{3-[1-(4-fluoro-phenyl)-ethyl]-thioureido}-phenyl)-benzamide]
[1]; [3]
  IC50: 1.5 µg/mL (≈ 3.51 µM)
HSV- I; Vero
  IC50: 10 µg/mL (≈ 23.4 µM)
VZV strain Ellen; [4]
  IC50: > 10 µg/mL

## CCCCC(NC(=S)Nc1ccc(NC(=O)c2ccccc2F)cc1)c1ccc(F)cc1 (stereo not drawn) [Example 773, 2-Fluoro-N-(4-{3-[1-(4-fluoro-phenyl)-pentyl]-thioureido}-phenyl)-benzamide]
[1]; [3]
  IC50: 1.2 µg/mL (≈ 2.65 µM)
HSV- I; Vero
  IC50: > 10 µg/mL
VZV strain Ellen; [4]
  IC50: > 7.5 µg/mL

## O=C(Nc1ccc(NC(=S)NC(Cc2ccccc2)c2ccc(F)cc2)cc1)c1ccccc1F (stereo not drawn) [Example 774, 2-Fluoro-N-(4-{3-[1-(4-fluoro-phenyl)-2-phenyl-ethyl]-thioureido}-phenyl)-benzamide]
[1]; [3]
  IC50: 0.5 µg/mL (≈ 1.03 µM)
HSV- I; Vero
  IC50: > 10 µg/mL
VZV strain Ellen; [4]
  IC50: > 7.5 µg/mL
